{
  "source": "paper PMC9227096",
  "about": "“Design, Synthesis, and In Vitro, In Silico and In Cellulo Evaluation of New Pyrimidine and Pyridine Amide and Carbamate Derivatives as Multi-Functional Cholinesterase Inhibitors” (Pharmaceuticals, 2022)",
  "key": {"equine BChE (eqBChE) [1]": {"molecular_target": "T1, equine BChE (eqBChE) (Equus caballus, UniProt P81908)", "T1 construct": "purchased Sigma-Aldrich (Milan, Italy)", "T1 sequence (P81908 whole entry)": "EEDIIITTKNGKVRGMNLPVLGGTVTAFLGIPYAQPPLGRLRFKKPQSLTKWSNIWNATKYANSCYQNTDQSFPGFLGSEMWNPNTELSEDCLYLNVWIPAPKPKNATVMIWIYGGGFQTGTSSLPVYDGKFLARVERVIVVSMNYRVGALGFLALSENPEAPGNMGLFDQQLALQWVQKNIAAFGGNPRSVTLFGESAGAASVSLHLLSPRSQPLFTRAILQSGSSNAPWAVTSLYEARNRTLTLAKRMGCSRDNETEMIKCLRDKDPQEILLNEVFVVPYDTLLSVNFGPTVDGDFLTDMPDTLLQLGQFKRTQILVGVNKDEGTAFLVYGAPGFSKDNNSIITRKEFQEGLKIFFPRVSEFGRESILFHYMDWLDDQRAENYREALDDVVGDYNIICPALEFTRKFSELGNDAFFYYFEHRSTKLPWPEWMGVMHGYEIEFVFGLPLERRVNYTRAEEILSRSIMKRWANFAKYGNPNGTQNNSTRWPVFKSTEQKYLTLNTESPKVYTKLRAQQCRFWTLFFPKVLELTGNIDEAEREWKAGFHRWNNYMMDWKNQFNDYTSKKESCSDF", "assay": "Determination of IC50 vs. eqBChE", "assay_type": "biochemical", "conditions": "IC50 ± SE, 100 µM acetylthiocholine, compound 18 after incubation for 1 h", "protocol": "The recorded data were analyzed with the enzyme kinetic module of SigmaPlot (Systat Software, Palo alto, CA, USA). Each measurement was replicated three times and the IC50 value obtained was confirmed by repeating the experiment twice. […] The IC50 plot of the tested compound is reported in the Supplementary Materials (Figure S3).\nThe recorded data were analyzed by the enzyme kinetic module of SigmaPlot, plotting the percentages of inhibition as a function of the different concentrations of inhibitor, expressed in logarithmic scale, in order to obtain the sigmoid graph, from which it was possible to determinate the IC50 value of the tested compound. The IC50 value was confirmed by repeating the experiment twice."}, "equine BChE (eqBChE) [2]": {"molecular_target": "T1, equine BChE (eqBChE)", "assay": "Reversibility of inhibition vs. eqBChE (ultrafiltration and washing)", "assay_type": "biochemical", "conditions": "for inhibition at 5.4 µM: compound 18 5.4 µM, eqBChE 1.25 U", "protocol": "Moreover, it was evaluated whether the inhibition mechanism of carbamate 18 towards eqBChE is reversible, irreversible or pseudo-irreversible. For this purpose, the percentages of inhibition were determined both after one hour of the incubation of compound 18 (5.4 µM) with eqBChE (1.25 U), both following the removal of the inhibitor and the washing of the enzyme, carried out through ultrafiltration devices for the concentration of biological samples [35, 36]. To validate the method, the same study was performed with carbaryl (54 µM), a known carbamoylating cholinesterase inhibitor.\nAfter the incubation phase, the solution containing the inhibitor not bound to the enzyme was removed by centrifugation, retaining eqBChE on the membrane of the ultrafiltration devices. Then the enzyme was washed with phosphate buffer, to remove the bound inhibitor and to restore the enzyme activity.\nThree solutions were prepared in 0.1 M phosphate buffer (pH = 7.4), containing eqBChE (0.50 UmL^−1), DTNB (0.3 mM) and acetylthiocholine (10 mM), respectively. A solution of compound 18 in DMSO (2.7 mM) was prepared. Then six Vivaspin® were used: • three were prepared with 2.5 mL of eqBChE solution (0.50 UmL^−1) and 5 µL of inhibitor solution; • three were prepared with 2.5 mL of eqBChE solution (0.50 UmL^−1) and 5 µL of DMSO.\nThe Vivaspin® thus prepared were incubated for 1 h at 25 °C. After this time the percentage of inhibition was determined following the Ellman method. The blank was recorded by taking 500 µL from the Vivaspin® and diluting them in the cuvette in 2.5 mL of DTNB solution (0.3 mM). The reaction was activated by adding 30 μL of acetylthiocholine solution (10 mM), so as to obtain a final concentration of 100 µM in the cuvette. The absorbance variation was measured between 0.5 and 1.5 min at 412 nm, repeating the measurement for each of the six Vivaspin®.\nAfter this procedure the first centrifugation of the Vivaspin® was carried out for 60 min at 4000 rpm and subsequently the solutions that crossed the membrane and settled in the filtrate tube were removed. In this way the solutions present in the concentrator body were concentrated up to 100 µL. To these solutions 1 mL of 0.1 M phosphate buffer (pH = 7.4) was added and the second centrifugation was carried out for 30 min at 4000 rpm. The solutions present in the concentrator body were concentrated up to 200 µL. The second washing was carried out, adding 1 mL of buffer and centrifuging for 30 min at 4000 rpm. The solutions present in the concentrator body were concentrated up to 250 µL. A third wash was carried out adding 1 mL of buffer and centrifuging for 50 min at 4000 rpm. The solutions present in the concentrator body were concentrated up to 150 µL. At this point, to recover the concentrated solution, the filtrate tube was removed, the concentrator body was turned upside down and inserted inside the concentrate recovery cap. The Vivaspin® was centrifuged for 10 min at 4000 rpm. After this time the recovered solution was taken up with 3 mL of DTNB solution (0.3 mM) and transferred into the cuvette: blank was recorded. The reaction was activated when 30 µL of substrate solution (10 mM) were added so as to have a final concentration of 100 µM in the cuvette. The absorbance variation between 0.5 and 1.5 min was measured at 412 nm, repeating the measurement for each of the recovered solutions.\nAs a positive control carbaryl was used, for which the same procedure was followed, using a 27 mM carbaryl stock solution in DMSO."}},
  "note": "Where two headings read alike, the source gives them in different places.",
  "data": [
    {"smiles": "O=C(NCCCCCCNc1ccccn1)Oc1ccccc1", "note": "[Compound 18, Phenyl (6-(pyridin-2-ylamino)hexyl)carbamate]", "values": [
      {"measurement": "IC50", "setting": "equine BChE (eqBChE) [1]", "value": 454, "unit": "nM"},
      {"measurement": "inhibition at 5.4 µM", "setting": "equine BChE (eqBChE) [2]; after ultrafiltration and washing with phosphate buffer, read-out: percentage of inhibition of eqBChE after removal of inhibitor and washing of the enzyme", "value": 56.7, "unit": "%"},
      {"measurement": "inhibition at 5.4 µM", "setting": "equine BChE (eqBChE) [2]; before washing, read-out: percentage of inhibition of eqBChE after one hour of incubation", "value": 89.7, "unit": "%"},
      {"measurement": "inhibition mechanism towards eqBChE (reversible, irreversible or pseudo-irreversible)", "setting": "equine BChE (eqBChE) [2]; from restoration of enzymatic activity after washing", "value": "pseudo-irreversible"}
    ]}
  ]
}
